{
  "source": "patent US20110059909A1",
  "about": "“METHODS FOR TREATING INFLAMMATORY DISORDERS” (priority 2004, published 2011)",
  "key": {"GalT-2": {"system": "GalT-2", "assay": "GalT-2 protein level by immunoblot after antisense transfection", "assay_type": "cell-based, rat", "settings": "48 h after transfection, 200 nM oligo", "protocol": "For iNOS protein, the cells were washed with cold Tris buffered saline (TBS; 20 mM Trizma base, and 137 mM NaCl, pH 7.5), lysed in 1×SDS sample loading buffer (62.5 mM Trizma base, 2% w/v SDS, 10% glycerol), following sonication and centrifugation at 15,000×g for 5 min, the supernatant was used for the iNOS western immunoblot assay. The protein concentration of samples was determined with the detergent compatible protein assay reagent (Bio-Rad Laboratories, CA) using bovine serum albumin (BSA) as the standard. Sample was boiled for 3 min with 0.1 volumes of 10% β-mercaptoethanol and 0.5% bromophenol blue mix. […] The membranes were detected by autoradiography using ECL-plus (Amersham Pharmacia Biotech) after washing with TBST buffer.\nA 20-mer antisense oligonucleotide of the following sequence (5′-CGCTTGAGCGCAGACATCTT-3′, SEQ ID NO:1) targeted against rat lactosylceramide synthase (GalT-2) were synthesized by Integrated DNA Technology. […] Cells were counted and plated a day before transfection and the following day were treated with Oligofectamine (Invitrogen)-oligonucleotide complexes (200 nM oligo) under serum free conditions. 48 h following transfection, the protein levels of GalT-2 were analyzed using polyclonal antibodies raised against rat GalT-2 (Abjent Inc., CA). […]"}, "neurons": {"system": "neurons", "assay": "Fluorescent TUNEL / NeuN staining of spinal cord sections following SCI", "assay_type": "in vivo, rat", "protocol": "TUNEL assay was carried out using APOPTAG Fluorescein In Situ Apoptosis Detection Kit (Serological Corporation, Norcross, Ga.) according to manufacturer's protocol. For double labeling, sections were incubated with mouse anti-neuronal nuclei 1:100 (NeuN, Chemicon, USA). Sections were incubated with TRITC conjugated […] 1:100 (Sigma), mounted in mounting media and visualized by fluorescence microscopy."}, "IL-1β": {"system": "IL-1β", "assay": "IL-1β expression at the lesion epicenter following SCI"}, "GFAP": {"system": "GFAP", "assay": "GFAP expression (reactive astrogliosis) at the lesion epicenter following SCI"}, "[1]": {"system": "rat aortic vascular smooth muscle cells", "settings": "cited from earlier work"}, "iNOS": {"system": "iNOS", "assay": "iNOS expression at the lesion epicenter following SCI"}, "rat SCI model": {"system": "rat SCI model", "assay": "BBB locomotor rating, rat SCI model", "assay_type": "in vivo", "description": "Sprague-Dawley female rats (225-250 g weight) were purchased (Harlan laboratories, Durham, N.C.) for induction of SCI. All rats were given water and food pellets ad libitum and maintained in accordance with the ‘Guide for the Care and Use of Laboratory Animals’ of the US Department of Health and Human Services (National Institutes of Health, Bethesda, Md., USA). The inventors have used a clinically relevant weight-drop device for the induction of SCI in rats as described earlier (Gruner, 1992). Briefly, rats were anesthetized by intraperitoneal (i.p.) administration of ketamine (80 mg/kg) plus xylazine (10 mg/kg) followed by laminectomy at T12. While the spine was immobilized with a stereotactic device, injury (30 g/cm force) was induced by dropping a weight of 5 gm from a height of 6 cm onto an impounder gently placed on the spinal cord. Sham operated animals underwent laminectomy only. Upon recovery from anesthesia, animals were evaluated neurologically and monitored for food and water intake. However, no prophylactic antibiotics or analgesics were used in order to avoid their possible interactions with the experimental therapy of SCI.\nAssessment of neurological (functional) recovery was performed by an open-field test using the 21-point Basso, Beattie, Bresnahan (BBB) locomotor rating scale (Basso et al., 1996) until Day 15 post-SCI. […]"}, "TNFα": {"system": "TNFα", "assay": "TNFα expression at the lesion epicenter following SCI"}, "[2]": {"system": "primary cultured rat neocortical explants", "settings": "cited from earlier work"}, "[3]": {"system": "primary cultured rat neocortical explants", "settings": "cited from earlier work", "remark": "listed apart in the source"}},
  "note": "Entries after “also recorded” stand apart in the source; their conditions may differ.",
  "data": [
    {"compound": "AS GalT-2 oligonucleotides: 20-mer antisense oligonucleotide 5′-CGCTTGAGCGCAGACATCTT-3′, SEQ ID NO:1, against rat lactosylceramide synthase (GalT-2) (antisense CGCTTGAGCGCAGACATCTT; chemistry not given here)", "values": [
      {"measurement": "GalT-2 protein levels", "setting": "GalT-2", "result": "diminished protein levels"}
    ]},
    {"compound": "CCCCCCCCCC(=O)NC(CN1CCOCC1)C(O)c1ccccc1.Cl", "note": "[PDMP, D-threo-1-Phenyl-2-decanoylamino-3-morpholino-1-propanol.HCl]", "values": [
      {"measurement": "Apoptosis of neurons (TUNEL/NeuN)", "setting": "neurons; 24 h post-SCI", "result": "provided protection"},
      {"measurement": "Effect on neuronal survival in sham operated animals", "setting": "neurons; sham operated, PDMP 20 mg/kg", "result": "no adverse effect"},
      {"measurement": "IL-1β mRNA levels", "setting": "IL-1β; 4 h post-SCI", "result": "markedly inhibited"},
      {"measurement": "IL-1β protein levels, immunofluorescence", "setting": "IL-1β; post-SCI (sections extracted 4 h)", "result": "significantly suppressed"},
      {"measurement": "GFAP, double immunofluorescence", "setting": "GFAP; 24 h post-SCI", "result": "significantly reduced; also recorded: significantly attenuated"},
      {"measurement": "GFAP mRNA and protein expression", "setting": "GFAP; PDMP 20 mg/kg post-SCI", "result": "effectively attenuated"},
      {"measurement": "IL-1β stimulated nitric oxide release", "setting": "[1]", "result": "increased"},
      {"measurement": "iNOS mRNA (real time PCR) and protein expression", "setting": "iNOS; 12 h following SCI", "result": "markedly suppressed"},
      {"measurement": "iNOS expression, double immunofluorescence", "setting": "iNOS; 24 h post-SCI", "result": "significantly reduced"},
      {"measurement": "BBB score", "setting": "rat SCI model; Day 3 post-SCI, PDMP 20 mg/kg i.p. at 10 min, 24 h, 48 h, 72 h", "result": "6.9±0.2"},
      {"measurement": "BBB score", "setting": "rat SCI model; Day 15 post-SCI, PDMP treatment stopped at Day 3", "result": "13.9±0.1"},
      {"measurement": "TNFα mRNA levels", "setting": "TNFα; 1 h post-SCI", "result": "markedly inhibited"},
      {"measurement": "TNFα protein levels, immunofluorescence", "setting": "TNFα; post-SCI (sections extracted 1 h)", "result": "significantly suppressed"},
      {"measurement": "Neurite outgrowth", "setting": "[2]", "result": "inhibited"},
      {"measurement": "GSL biosynthesis", "setting": "[3]", "result": "inhibited"}
    ]}
  ]
}
